This passage reports melting point results from a melting point compilation (Tetko et al.; mined from patent text by program, amines drawn as free bases though some values may be those of a salt).

Each structure is given as a SMILES string.

For orientation: melting point means the temperature of the solid-liquid transition. The compound `O=C(c1ccnc(Cl)c1)N1CC2(CCN(CC=Cc3ccc(C(F)(F)F)cc3)CC2)c2cc(Cl)ccc21` gave a melting point of 130 °C. The same measure for `CCOC(=O)c1nc(CCl)n(-c2ccccc2C(=O)c2ccccn2)n1`: 129 to 130 °C; for `COC(=O)C1=C(C)NC(C)=C(C(=O)OCC2CC2)C1c1cccc([N+](=O)[O-])c1` (stereo not drawn): 160 to 163 °C. The same measure for `COC(=O)c1cccc2[nH]ncc12`: 153 to 155 °C. Compound `CN1C(=O)COc2cccc3nc4c(c1c23)CCCC4` registered a melting point of 176 to 178 °C. Then `CSc1nc(=O)cc(C)n1C1CCCCC1`, with 184 to 186 °C; and `COc1ccc(/C=C(\C#N)c2ccccc2OC)cc1OC1CCCC1`, with 85 to 87.5 °C. The same measure for `CCOC(=O)c1c(CN2CCCCC2)nc2cc3c(cc2c1-c1ccc(OC)c(OC)c1)OCCO3`: 158 to 160 °C; for `CCc1cccc(C)c1CNc1cc(Br)cc2c1ncn2C`: 132 to 134 °C. Then `CN(C)c1ncc2c(=O)n(CCc3ccccn3)sc2n1`, with 134 to 136 °C; and `C=CCOc1ccc(C(=O)CC(=O)C(C)(C)C)cc1OC`, with 40 °C. As for `CC(=O)OC1CCC2(C)C(CCC3C4CC5OC6(CC(C)C(C)(C)O6)C(C)(O)C5C4(C)CC(OC(C)=O)C32)C1` (stereo not drawn), the melting point lay in the range of 253 to 256 °C.

Regarding `CCOC(=O)C1=C(NC(C)=O)Oc2cc(O)ccc2C1c1cccnc1` (stereo not drawn), the melting point lay within 216 to 218 °C.

On to `CCCc1c(OCCCC/C=C/c2ccc(C(=O)c3cccc(C(=O)O)c3)cc2CCC(=O)O)ccc2c1OCCC2=O`, for which the melting point lay in the range of 105 to 109 °C. Then `CC(=O)C(=[N+]=[N-])C(=O)NCCO`, with 69 to 70 °C; and `COc1ccc(Nc2ccc(C)cc2)c(C(=O)O)c1`, with 160 to 161 °C; and `CCC(COc1ccccc1COc1cccc2ccc(=O)[nH]c12)OC(C)=O` (stereo not drawn), with 112 to 114 °C. The same measure for `CCOC(=O)c1cccn2cc(C(F)(F)F)nc12`: 108 to 110 °C; for `CCN(CC)c1ccc(C=CC2=NC(C#N)=C(C#N)N=CC2)cc1`: > 300 °C. The same measure for `CC1(C)CC(C)(C)CC(CCCC(=O)O)(NC(=O)CCl)C1`: 140 to 141 °C. The compound `COc1cc(C)nc(NC(=O)NS(=O)(=O)c2cccc3cc[nH]c23)n1` yielded a melting point of 207 to 209 °C. For `CCOC(=O)CC[C@H](NC(=O)c1csc(CCCc2coc3nc(N)nc(N)c23)c1)C(=O)OCC`, the melting point is 79 to 80 °C. The same measure for `CC(C)(C)c1ccc(CC[C@@H](N)[C@H](O)c2ccc(F)cc2)cc1` (racemic): 139 to 140 °C; for `CN(C)CCN(C1CCS(=O)(=O)C1)S(=O)(=O)c1ccc(Nc2nccc(Nc3ccc(F)cc3)n2)cc1` (stereo not drawn): 162 to 165 °C. Then `CCCCC(=O)Nc1c(OC)cccc1[N+](=O)[O-]`, with 113 to 114 °C; and `O=C(Nc1cnc2sc3c(c2c1-c1ccccc1Cl)CCC3)c1ccc(F)cc1F`, with 219 to 220 °C. The same measure for `CCOC(=O)c1cc(NC(C)=O)ccc1OC(C)=O`: 91.5 to 92.5 °C; for `CCOc1cccc(-c2nc(-c3ccccc3COC(=O)OCc3ccccc3-c3n[nH]c(-c4cccc(OCC)c4)n3)n[nH]2)c1`: 143 to 145 °C. As for `N#CC1=C(C#N)N=CCC=N1`, the melting point lay in the range of 189 to 190 °C. Then `CCNc1cccc(C#CCCn2nc3ccccc3n2)n1`, with 73 to 78 °C; and `Cc1c(I)c(=O)n(C)c(=O)n1C`, with 155 to 157 °C. The same measure for `CCOC(=O)c1ccc(/C=C(\C)c2ccc(OC)c(C3(C)CCCCC3)c2)cc1`: 60 to 62 °C; for `CC(O)=C(C#N)C(=O)Nc1ccc([N+](=O)[O-])c(C)c1`: 231 to 233 °C.

Turning to `CC(C)(C)OC(=O)N1Cc2c(Br)sc(-c3ccccc3)c2C1`, the melting point was 139 to 140 °C. `CN(CCO)c1cccc2c1C(=O)c1c(cccc1N(C)CCO)C2=O` came in with a melting point of 168 to 178 °C. Then `C1=C(c2nc(COc3ccc(CCCn4ccnc4)cc3)co2)CCc2ccccc21`, with 99 to 100 °C.

On to `CNC(=O)c1cn(CCO)nc1[N+](=O)[O-]`, for which the melting point is 138 to 140 °C. In turn, `COc1cc(C)nc(NC(=O)NS(=O)(=O)c2ccc(N=[N+]=[N-])cc2)n1` showed a melting point of 192 °C. Then `Clc1ccc(/C=C/C2=CCN(Cc3ccccc3)CC2)cc1`, with 123 to 125 °C; and `Cc1c(OCC#N)cc2c(c1Cl)C(=O)C1(CCCC1)C2=O`, with 137 to 139 °C. The same measure for `CN(C(=O)OC(C)(C)C)c1cc(Oc2ccc(-c3nnn[nH]3)cc2)ccc1[N+](=O)[O-]`: 81 to 84 °C.

In turn, `CC(C)(C(=O)O)c1cc(C(F)(F)F)cc(C(F)(F)F)c1` showed a melting point of 106 to 107 °C. The same measure for `O=c1c2cc3ccccc3cc2oc2cc(OCC3CS3)cc(O)c12` (stereo not drawn): 189 to 190 °C. The same measure for `O=c1oc(-c2ccccc2)cc(O)c1SCCc1cccc(Cl)c1`: 133 to 134 °C; for `CC1=C(c2ccncc2)SCC(=O)N1C`: 139 to 140 °C; for `CCNC(=O)n1nc(Oc2c(Cl)cc(C(F)(F)F)cc2Cl)cc1CC(=O)OCC`: 100 to 102 °C. The same measure for `Cc1ccc(C=C2C3=C(C=CC2(C)C)CC(C)CN3)cc1` (stereo not drawn): 153 °C; for `Cc1cccc2c(Cl)c(Cl)sc12`: 48 to 50 °C; for `Cc1c(C)c2ccc(OCCCN3CCC(=NO)CC3)cc2oc1=O`: 198 to 200 °C. As for `CC(=O)Nc1ccc(N)c(C(O)c2ccccc2Cl)c1` (stereo not drawn), the melting point was in the range of 137 to 138 °C. Then `NS(=O)(=O)c1cccc(NC(=O)c2cnn3c(C(F)(F)F)cc(-c4ccc(C(F)(F)F)c(OCC(F)(F)F)c4)nc23)c1`, with 233 °C; and `O=C(O)c1ccc(NCCCCc2cccs2)cc1`, with 137 to 140 °C; and `CC(=O)Nc1ccc([N+](=O)[O-])cc1OCC1CO1` (stereo not drawn), with 164 °C. The same measure for `Cc1nc2c(n1C(=O)OC(C)(C)C)CCCC2=O`: 126 °C. The same measure for `CCCCCCCCCCCCCCCCCC(=O)Oc1cc(C=CC(=O)c2ccccc2)cc([N+](=O)[O-])c1O`: 112 to 118 °C.

In the case of `Nc1c(Cl)cc(C(=O)Cl)cc1C(F)(F)F`, the melting point is 110 to 115 °C. Then `CC(=O)Oc1cccnc1-n1ccnc1S(=O)Cc1ccccc1N1CCOCC1` (stereo not drawn), with 104 to 107 °C. The same measure for `Cc1nc2c3c(ccc2[nH]1)[C@H]1OCCO[C@@H]1[C@@H](c1ccccc1)O3`: 260 °C; for `CC(C)C1NC(=O)CN1C(=O)C(Cl)Cl` (stereo not drawn): 172 to 173 °C. Then `CCOC(=O)c1nc(NCC(c2ccccc2)c2ccccc2)c2ncn([C@@H]3O[C@H](CO)[C@@H](O)[C@H]3O)c2n1`, with 118 to 120 °C; and `O=C(N[C@H](Cc1ccccc1)C(=O)O)OCc1ccc2nc(-c3ccccc3)ccc2c1`, with 190 to 191 °C.

For `CC(C)(C)NS(=O)(=O)c1cc2c(s1)S(=O)(=O)NCC2=O`, the melting point fell in the range of 170 to 172 °C. In turn, `Cn1cc(O)c(=O)c2cc(F)c(F)cc21` returned a melting point of 264 to 265 °C. The same measure for `Cc1nc(CCOCCCCCCNCC(O)c2cc(Cl)c(N)c(Cl)c2)cs1` (stereo not drawn): 67 to 69 °C. The same measure for `CNCCCN(C)C(=O)[C@@H]1CCCN1S(=O)(=O)c1ccc(Cl)c(COc2cccc3c(-n4ccnc4)cc(C)nc23)c1Cl`: 125 °C; for `Cc1cc(-c2cccc([N+](=O)[O-])c2)nnc1N(C)N`: 173 to 174 °C. The same measure for `Cc1cccc(-c2cn(C)cc(-c3cccc(C(F)(F)F)c3)c2=S)c1`: 193 to 196 °C; for `CCCC(=O)CN1CCC(CCN2CCN(c3cccc(C)c3C)CC2)CC1`: 47 °C. In the case of `CSc1cc(C)nc(SC)c1NC(=O)CSc1nc2cccc(C(F)(F)F)c2o1`, the melting point lay within 207 to 209 °C. In the case of `CCc1cc2c(s1)SCCc1cc(=O)n(-c3ccc(Cl)cc3)nc1-2`, the melting point lay within 127 to 128 °C. The same measure for `O=S(=O)(c1ccccc1)n1c2ccc(C=Cc3ccccc3)cc2c2cc(Cl)cnc21`: 190 to 192 °C; for `c1cc(-c2ccc(-c3cn([C@H]4CN5CCC4CC5)nn3)s2)ccc1CN1CCCCC1`: 230 °C; for `COc1ccc(C(=O)Nc2c(Cl)cncc2Cl)cc1OC1CCCC1F` (stereo not drawn): 167 to 169 °C. Then `CC(C)(C)c1cc2c(c(C(C)(C)C)c1)O[Si](C)(C)Oc1c-2cc(C(C)(C)C)cc1C(C)(C)C`, with 170 to 176 °C; and `CC(=O)N1CC(C)c2c1cc(C)c(O)c2C` (stereo not drawn), with 204 to 205 °C; and `COc1cc(OC)c(N2CCCC2)cc1/C=C/C(=O)c1ccc(S(N)(=O)=O)cc1`, with 220 to 222 °C. Then `CCCCOc1c(CNC(=O)OC(C)(C)C)n(CC(C)C)c(=O)c2ccc(-c3nc(C)c(C#N)s3)cc12`, with 148 to 150 °C; and `N#Cc1cc(-c2c3ccccc3cc3sc4ccccc4c23)cc(C#N)c1OCC(=O)O`, with 134 to 136 °C. Consider `CS(=O)(=O)c1ccc(-c2cnn(-c3cccc(Cl)c3)c(=O)c2Oc2ccccc2)cc1`, for which the melting point lay within 205 to 207 °C.

As for `CCOC(=O)c1sc2cc(COS(C)(=O)=O)ccc2c1S(=O)c1cccc(OC)c1` (stereo not drawn), the melting point was in the range of 80 to 83 °C. Then `CCCCN(Cc1ccc(-c2ccccc2-c2nnn[nH]2)cc1)c1ncncc1C(=O)OC(C)OC(=O)C(C)(C)C` (stereo not drawn), with 71 to 85 °C. Take `CCCC(=O)NCCC1CCc2ccc3c(c21)OCO3` (stereo not drawn): the melting point was 71 to 73 °C. In the case of `N#Cc1ccc2c(c1)NC(=O)C(O)C2` (stereo not drawn), the melting point was > 250 °C. Take `O=c1[nH]c2cc(Cl)ccc2c(=O)n1S(=O)(=O)c1ccc(Cl)cc1F`: the melting point was in the range of 267 to 268 °C. The same measure for `O=C(C=Cc1ccc(F)cc1)c1c(F)c(F)c(F)c(F)c1F`: 80 to 84 °C; for `Cc1cc(Oc2ccnc(OC(F)F)c2)nc(Oc2ccnc(OC(F)F)c2)c1`: 60 to 65 °C. Then `C=CC(=O)NCCCCCCCCCCCCOc1ccccc1`, with 69 to 71 °C; and `O=C(NCCCOc1cccc(CN2CCCCC2)c1)Nc1ccc2c(c1)OCO2`, with 128 to 130 °C.
